Measurements taken from patent US20240262819A1, “NOVEL COMPOUNDS HAVING INHIBITORY ACTIVITY AGAINST GLUCOSYLCERAMIDE SYNTHASE OR PHARMACEUTICALLY ACCEPTABLE SALT THEREOF, PROCESSES FOR PREPARING THE SAME, AND PHARMACEUTICAL COMPOSITIONS COMPRISING THE SAME” (YUHAN CORPORATION, priority 2021, published 2024).
Read-outs that look alike come from different tables or passages of the source.

What was measured:
[1] = target: glucosylceramide synthase (GCS) (Homo sapiens (Human), UniProt Q16739); assay: Evaluation of inhibitory activities against GCS (A549 cell lysate, NBD C6-ceramide, HPLC); assay type: biochemical
glucosylceramide synthase (GCS), sequence (Q16739 whole entry): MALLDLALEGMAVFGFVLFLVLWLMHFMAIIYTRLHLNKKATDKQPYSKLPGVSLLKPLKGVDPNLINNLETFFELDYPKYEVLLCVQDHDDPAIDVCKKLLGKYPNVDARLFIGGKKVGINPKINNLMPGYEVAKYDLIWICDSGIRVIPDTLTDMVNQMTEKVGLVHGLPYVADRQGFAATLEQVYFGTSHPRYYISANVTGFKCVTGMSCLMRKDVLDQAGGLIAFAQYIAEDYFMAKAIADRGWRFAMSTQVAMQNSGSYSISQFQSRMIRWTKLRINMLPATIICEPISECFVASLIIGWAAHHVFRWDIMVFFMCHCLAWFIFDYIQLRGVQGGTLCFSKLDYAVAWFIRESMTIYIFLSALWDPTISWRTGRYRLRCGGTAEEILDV
Outline: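 GCS activity in A549 cell lysate (50 mM HEPES, pH 7.3) with NBD C6-ceramide, reacted 90 min at 37 °C. Lipids were chloroform/methanol-extracted and separated by normal-phase HPLC with fluorescence detection (ex 470/em 530 nm). GlcCer fraction of peak area was normalized between DMSO and ibiglustat, and IC50 obtained by curve fitting.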

[2] = system: GM1 production in Jurkat cells; assay: cells; assay type: cell-based
[3] = Evaluation of blood-brain barrier (BBB) permeability through oral administration; assay type: in vivo, mice; conditions: mice, oral, dose 30 mg/kg, 4 hr; for Kp at 4 h / concentration at 4 h: mouse, in vivo; for Kp at 4 h: read-out: Mean brain-plasma drug ratio at 4 hr
Outline: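 Mice dosed orally at 10 or 30 mg/10 ml/kg, suspended in 0.5% methyl cellulose with 0.2% Tween 80. Plasma and forebrain homogenate taken 4 hours post-dose, drug measured by LC-MS/MS; brain/plasma ratio calculated from tissue concentrations.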

[4] = read-out: Mean drug concentrations in brain tissue at 4 hr
[5] = read-out: Mean drug concentrations in plasma at 4 hr
[6] = % GCS activity, A549 cell lysate, 37° C. for 90 minutes, read-out: IC50

Row | SMILES | IC50 [1] [nM] | IC50 ([2]; Homo sapiens, Jurkat, 72 h) [nM] | Kp at 4 h [3] | concentration at 4 h [3, 4] [ng/g] | concentration at 4 h [3, 5] [ng/mL] | IC50 [1, 6] [nM] | IC50 ([2]; read-out: IC50) [nM] | Mean brain-plasma drug ratio at 4 hr [3] | Mean drug concentrations in brain tissue at 4 hr [3] [ng/g] | Mean drug concentrations in plasma at 4 hr [3] [ng/mL]
1 | CC1(C)Cc2cc(-c3ccc(OCC4CC4)cc3Cl)ccc2[C@@H]1NC(=O)O[C@@H]1CN2CCC1CC2 [Example 38, (S)-quinuclidin-3-yl((R)-5-(2-chloro-4-(cyclopropylmethoxy)phenyl)-2,2-dimethyl-2,3-dihydro-1H-inden-1-yl)carbamate] | 0.05 | 3.2 | 5.6 | 3640 | 670 | – | – | – | – | –
2 | CC1(C)Cc2cc(-c3ccc(OCC4CC4)c(Cl)c3)ccc2[C@@H]1NC(=O)O[C@@H]1CN2CCC1CC2 [Example 39, (S)-quinuclidin-3-yl((R)-5-(3-chloro-4-(cyclopropylmethoxy)phenyl)-2,2-dimethyl-2,3-dihydro-1H-inden-1-yl)carbamate] | 1.03 | 1.1 | 9.85 | 5510 | 564 | – | – | – | – | –
3 | CCOc1ccc(-c2ccc3c(c2)CC(C)(C)[C@H]3NC(=O)O[C@@H]2CN3CCC2CC3)c(Cl)c1 [Example 44, (S)-quinuclidin-3-yl((R)-5-(2-chloro-4-ethoxyphenyl)-2,2-dimethyl-2,3-dihydro-1H-inden-1-yl)carbamate] | 0.17 | 2.3 | 4.79 | 8860 | 1850 | – | – | – | – | –
4 | CCCOc1c(C)cc(-c2cc3c(cc2F)[C@H](NC(=O)O[C@@H]2CN4CCC2CC4)C(C)(C)C3)cc1C [Example 64, (S)-quinuclidin-3-yl((R)-5-(3,5-dimethyl-4-propoxyphenyl)-6-fluoro-2,2-dimethyl-2,3-dihydro-1H-inden-1-yl)carbamate] | 3.92 | 11.6 | 4.43 | 1040 | 234 | – | – | – | – | –
5 | CC(C)Oc1ccc(-c2cc3c(cc2F)[C@H](NC(=O)O[C@@H]2CN4CCC2CC4)C(C)(C)C3)cc1F [Example 83, (S)-quinuclidin-3-yl((R)-6-fluoro-5-(3-fluoro-4-isopropoxyphenyl)-2,2-dimethyl-2,3-dihydro-1H-inden-1-yl)carbamate] | 0.58 | 10.4 | 6.29 | 7370 | 1170 | – | – | – | – | –
6 | Cc1ccc(-c2cc3c(cc2F)[C@H](NC(=O)O[C@@H]2CN4CCC2CC4)C(C)(C)C3)cc1Cl [Example 84, (S)-quinuclidin-3-yl((R)-5-(3-chloro-4-methylphenyl)-6-fluoro-2,2-dimethyl-2,3-dihydro-1H-inden-1-yl)carbamate] | 0.29 | 17.2 | 7.23 | 4940 | 683 | – | – | – | – | –
7 | CCOc1ccc(-c2cc3c(cc2F)[C@H](NC(=O)O[C@@H]2CN4CCC2CC4)C(C)(C)C3)cc1Cl [Example 86, (S)-quinuclidin-3-yl((R)-5-(3-chloro-4-ethoxyphenyl)-6-fluoro-2,2-dimethyl-2,3-dihydro-1H-inden-1-yl)carbamate] | 0.756 | 45.8 | 5.65 | 4790 | 852 | – | – | – | – | –
8 | CCCOc1ccc(-c2cc3c(cc2F)[C@H](NC(=O)O[C@@H]2CN4CCC2CC4)C(C)(C)C3)cc1Cl [Example 87, (S)-quinuclidin-3-yl((R)-5-(3-chloro-4-propoxyphenyl)-6-fluoro-2,2-dimethyl-2,3-dihydro-1H-inden-1-yl)carbamate] | 0.77 | 36.2 | 8.57 | 972 | 114 | – | – | – | – | –
9 | COc1ccc(-c2cc3c(cc2F)[C@H](NC(=O)O[C@@H]2CN4CCC2CC4)C(C)(C)C3)cc1F [Example 89, (S)-quinuclidin-3-yl((R)-6-fluoro-5-(3-fluoro-4-methoxyphenyl)-2,2-dimethyl-2,3-dihydro-1H-inden-1-yl)carbamate] | 0.621 | 43.5 | 5.42 | 4040 | 751 | – | – | – | – | –
10 | CC(C)Oc1ccc(-c2cc3c(cc2F)[C@H](NC(=O)O[C@@H]2CN4CCC2CC4)C(C)(C)C3)c(Cl)c1 [Example 92, (S)-quinuclidin-3-yl((R)-5-(2-chloro-4-isopropoxyphenyl)-6-fluoro-2,2-dimethyl-2,3-dihydro-1H-inden-1-yl)carbamate] | 0.07 | 1.16 | 4.13 | 2230 | 545 | – | – | – | – | –
11 | Cc1cc(OC(C)C)ccc1-c1cc2c(cc1F)[C@H](NC(=O)O[C@@H]1CN3CCC1CC3)C(C)(C)C2 [Example 96, (S)-quinuclidin-3-yl((R)-6-fluoro-5-(4-isopropoxy-2-methylphenyl)-2,2-dimethyl-2,3-dihydro-1H-inden-1-yl)carbamate] | 0.08 | 0.76 | 6.24 | 5360 | 864 | – | – | – | – | –
12 | CCOc1ccc(-c2cc3c(cc2F)[C@H](NC(=O)O[C@@H]2CN4CCC2CC4)C(C)(C)C3)c(Cl)c1 [Example 104, (S)-quinuclidin-3-yl((R)-5-(2-chloro-4-ethoxyphenyl)-6-fluoro-2,2-dimethyl-2,3-dihydro-1H-inden-1-yl)carbamate] | 0.1 | 1.4 | 3.76 | 5180 | 1380 | – | – | – | – | –
13 | CCCOc1c(C)cc(-c2ccc3c(c2)CCC(C)(C)[C@H]3NC(=O)O[C@@H]2CN3CCC2CC3)cc1C [Example 148, (S)-quinuclidin-3-yl((R)-6-(3,5-dimethyl-4-propoxyphenyl)-2,2-dimethyl-1,2,3,4-tetrahydronaphthalen-1-yl)carbamate] | 1.6 | 8.86 | 1.82 | 1680 | 951 | – | – | – | – | –
14 | CC(C)Oc1ccc(-c2ccc3c(c2)CCC(C)(C)[C@H]3NC(=O)O[C@@H]2CN3CCC2CC3)cc1Cl [Example 150, (S)-quinuclidin-3-yl((R)-6-(3-chloro-4-isopropoxyphenyl)-2,2-dimethyl-1,2,3,4-tetrahydronaphthalen-1-yl) carbamate] | – | – | – | – | – | 1.26 | 3.27 | 1.471 | 1520.5 | 1065
15 | COc1ccc(-c2ccc3c(c2)CCC(C)(C)[C@H]3NC(=O)O[C@@H]2CN3CCC2CC3)c(F)c1 [Example 151, (S)-quinuclidin-3-yl((R)-6-(2-fluoro-4-methoxyphenyl)-2,2-dimethyl-1,2,3,4-tetrahydronaphthalen-1-yl) carbamate] | – | – | – | – | – | 0.49 | 5.2 | 2.04 | 2441.3 | 1196.4
16 | CCc1cccc(-c2ccc3c(c2)CCC(C)(C)[C@H]3NC(=O)O[C@@H]2CN3CCC2CC3)c1 [Example 158, (S)-quinuclidin-3-yl((R)-6-(3-ethylphenyl)-2,2-dimethyl-1,2,3,4-tetrahydronaphthalen-1-yl)carbamate] | 0.45 | 1.1 | 3.67 | 3720 | 1020 | – | – | – | – | –
17 | CC(C)Oc1ccc(-c2ccc3c(c2)CCC(C)(C)[C@H]3NC(=O)O[C@@H]2CN3CCC2CC3)cc1F [Example 161, (S)-quinuclidin-3-yl((R)-6-(3-fluoro-4-isopropoxyphenyl)-2,2-dimethyl-1,2,3,4-tetrahydronaphthalen-1-yl)carbamate] | 7.41 | 4.5 | 3.97 | 4840 | 1240 | – | – | – | – | –
18 | CC(C)c1cccc(-c2ccc3c(c2)CCC(C)(C)[C@H]3NC(=O)O[C@@H]2CN3CCC2CC3)c1 [Example 162, (S)-quinuclidin-3-yl((R)-6-(3-isopropylphenyl)-2,2-dimethyl-1,2,3,4-tetrahydronaphthalen-1-yl)carbamate] | 7.55 | 1.4 | 3.71 | 3570 | 967 | – | – | – | – | –
19 | CC(C)Oc1cccc(-c2ccc3c(c2)CCC(C)(C)[C@H]3NC(=O)O[C@@H]2CN3CCC2CC3)c1 [Example 165, (S)-quinuclidin-3-yl((R)-6-(3-isopropoxyphenyl)-2,2-dimethyl-1,2,3,4-tetrahydronaphthalen-1-yl)carbamate] | 0.55 | 2.51 | 2.83 | 2400 | 852 | – | – | – | – | –
20 | CC(C)Oc1ccc(-c2ccc3c(c2)CCC(C)(C)[C@H]3NC(=O)O[C@@H]2CN3CCC2CC3)c(Cl)c1 [Example 168, (S)-quinuclidin-3-yl((R)-6-(2-chloro-4-isopropoxyphenyl)-2,2-dimethyl-1,2,3,4-tetrahydronaphthalen-1-yl)carbamate] | 0.188 | 0.23 | 1.18 | 3370 | 2890 | – | – | – | – | –
21 | CCCc1ccc(-c2cc3c(cc2F)[C@H](NC(=O)O[C@@H]2CN4CCC2CC4)C(C)(C)CC3)cc1 [Example 171, (S)-quinuclidin-3-yl((R)-7-fluoro-2,2-dimethyl-6-(4-propylphenyl)-1,2,3,4-tetrahydronaphthalen-1-yl)carbamate] | 0.19 | 1.4 | 3.88 | 2900 | 748 | – | – | – | – | –
